Experimental data published in patent publication US5948931A (priority 1997, dated 1999).
Several values for one entry are separate records, joined by “and”; a condition that tells them apart may be missing. Identical values can stand only once. Entries after “also recorded” stand apart in the source; their conditions may differ. Counter-ions that a name gives are not always drawn. Like-named read-outs stand apart in the source and are kept apart here.

What was measured:
[1] = Stability of DCHA+ salts 3 heated in different solvents (31P NMR); format: physicochemical; conditions: for degraded at 3.5 h: water, read-out: conversion to phosphate
Procedure: Stability of DCHA^+ Salts 3 Heated in Different Solvents. 40 mg 3 (E or Z) was heated in 5 ml of alcohol mixture, H2 O or acetonitrile. Reaction progress was monitored by ^31 P NMR spectroscopy.

[2] = Stability of C-esters of Troika acid (E-2) in water; format: physicochemical
[3] = Alkaline hydrolysis of E-3 and Z-3 to salts 4; format: physicochemical; conditions: for time to complete hydrolysis: NaOH in D2O; for time of alkaline hydrolysis: aq. NaOH, 25° C., pH 13-14
Procedure: In an additional aspect of the present invention, C-alkyl esters of 3 can be stable under physiological conditions but can be reactive under more vigorous conditions. The stability of the parent Troika acids in H2 O were analyzed. Alkaline hydrolysis by methods known by those skilled in the art of E-3 and Z-3 (preferably, aq. NaOH, at a temperature of 25° C., at pH 13-14) can give the corresponding sodium salts E-4 and Z-4, the Z ester reacting much more rapidly (1 h vs. 70 h for E-3). Both salts 4 can be quite stable at high pH, typically, at pH values greater than 10, and room temperature, but at about pH 6 facile stereospecific fragmentations can be observed. […] The transformation of anti α-keto acid oximes to nitriles in aqueous solution at 40-100°C. is well known to those skilled in the art, but the corresponding process giving a phosphononitrile from a phosphonate α-oxime, observed with Z-4, was unexpected. Furthermore, an additional unexpected result in accordance with the present invention, was the finding that simple removal of the carboxy alkyl group of E-3 can create a reagent (E-4) capable of phosphorylation under mild aqueous conditions.
Synthesis of E4 & 5. 10 N NaOH ([…]) was added to E-3 (10 mg) in D2 O (0.4 ml) in an NMR tube, raising the pH to ~13. Hydrolysis was monitored by ^1 H and ^31 P NMR at room temperature. The reaction was complete in 3 d, giving a product identified by ^13 C and ^31 P NMR as E-4. ^13 C NMR (D2 O): δ (ppm) 161.8 (d, ^1 JPC =176 Hz, P--C=N), 175.4 (d, ^2 JPC =21 Hz, C=O); ^31 P NMR (D2 O, pH=13-14): δ (ppm) 2.8.
Acidification of Z-4 & 6. An analogous procedure for E-4 was carried out with the Z-3 isomer. Hydrolysis was complete within 1 h, yielding Z-4. […] (D2 O, pH=13-14): δ (ppm) 161.1 (d, ^1 JPC =127 Hz, P--C=N), […], 171.9 (d, ^2 JPC =17 Hz, C=O); ^31 P NMR (D2 O, pH=13-14): δ (ppm), 2.0.

[4] = pH dependence of the stability of DCHA+ salts 3 in D2O (31P NMR); format: physicochemical; conditions: 22° C.; for stability in D2O: 24 h, pH 2-8; for remaining at 24 h / Z isomer formed from E-3 (% int, 31P NMR) / F, fragmentation product (HO)2P(O)OH from E-3 (% int) / H, hydrolysis product 4 from E-3 (% int) / E isomer formed from Z-3 (% int, 31P NMR) / F, fragmentation product (HO)2P(O)CN from Z-3 (% int) / H, hydrolysis product 4 from Z-3 (% int): t = 24 h
Procedure: pH Dependence of the Stability of DCHA^+ Salts 3. These experiments were carried out in 5 mm glass NMR tubes in D2 O at 22° C., concentration of 3 0.1% (w/v).

[5] = for fragmentation product: about pH 6; for stability at high pH: pH greater than 10, room temperature
[6] = format: physicochemical
[7] = Photochemical activation (UV irradiation) of ONBCE-TA in Tris buffer; format: physicochemical
Procedure: Photochemical Activation Example. 5 mg of o-Nitrobenzyl (E)-dihydroxyphosphinyl)(hydroxyimino)acetate (ONBCE-TA) (prepared analogously to PNHDA) dissolved in 0.5 ml of 100 mM Tris buffer (pH 6.9) was irradiated in a Rayonet apparatus for 17 hr at 39° C. Phosphoric acid (the product from phosphorylation of solvent water) was obtained, yield 11%. The phosphorylation was not noticed in the absence of UV irradiation.

[8] = pH 10, 27° C.; known to those skilled in the art; cited from earlier work
[9] = Exp 2, EtOH:i-PrOH 1:1, 79° C., 30 h
[10] = Exp 3, EtOH:t-BuOH 1:1, 79° C., 28 h
[11] = Exp 5, H2O (pH 6-7), 82-84° C., 4.0 h
[12] = Exp 8, H2O (pH 6-7), 82-84° C., 5.7 h

## COC(=O)/C(=N\O)P(=O)(O)O [E-2, methyl α-(hydroxyimino)phosphonoacetic acid]
[1]; 1 d in refluxing AN, DCHA+ salt
  thermal stability: decomposed to polyphosphates
[2]; H2O at physiological pH
  stability in water: stable
[2]; neutral and acidic pH, room temperature
  stability in water: stable at both acidic and neutral pH; also recorded: stable in water at room temperature

## COC(=O)/C(=N\O)P(=O)(O)O [E-3, Dicyclohexylammonium E-Methyl (Hydroxyimino)phosphonoacetate]
[3]; pH ~13, room temperature
  time to complete hydrolysis: 3 days
[3]
  time of alkaline hydrolysis: 70 h
[1]; 5 h in 1:1 MeOH:i-PrOH, 72° C.
  stability on heating: unchanged
[1]; 30 h in 1:1 EtOH:i-PrOH, 79° C.
  Et phosphate and i-Pr phosphate formed: 84%
[1]; [9]
  Et-phosphate (yield, %): 48.3%
  Z-isomer (yield, %): 2.5%
  i-Pr-phosphate (yield, %): 35.8%
  phosphate (yield, %): 8.5%
  s.m. (%): 4.9%
[1]; [10]
  Et-phosphate (yield, %): 33.9%
  Z-isomer (yield, %): 29.4%
  phosphate (yield, %): 9.4%
  s.m. (%): 10.4%
  t-Bu-phosphate (yield, %): 16.9%
[1]; Exp 4, H2O (pH 4.0), 82-84° C., 3.5 h
  phosphate (yield, %): 100%
[1]; [11]
  phosphate (yield, %): 87.7%
  s.m. (%): 12.3%
[1]; Exp 6, MeCN, 81° C., 3.5 h
  phosphate (yield, %): 0.6%
  phosphononitrile (yield, %): 2.1%
  polyphosphates (yield, %): 80.9%
  s.m. (%): 16.4%
[1]; refluxing acetonitrile, several hours
  polyphosphate products: 81%
[1]; H2O, pH 4.0, 3.5 h, 82-84° C.
  degraded at 3.5 h: 100%
[1]; H2O, pH ~6.5, 3.5 h, 82-84° C.
  degraded at 3.5 h: 88%
[4]
  stability in D2O: stable
[4]; t = 0, pH 2.0, D2O
  E isomer (% int, 31P NMR): 100%
[4]; t = 0, pH 4.0, D2O
  E isomer (% int, 31P NMR): 100%
[4]; t = 0, pH 6.2, D2O
  E isomer (% int, 31P NMR): 100%
[4]; t = 0, pH 8.1, D2O
  E isomer (% int, 31P NMR): 100%
[4]; t = 0, pH 10.4, D2O
  E isomer (% int, 31P NMR): 100%
[4]; t = 0, pH 11.0, D2O
  E isomer (% int, 31P NMR): 100%
[4]; pH 2.0, D2O, read-out: E isomer (% int, 31P NMR)
  remaining at 24 h: 100%
[4]; pH 4.0, D2O, read-out: E isomer (% int, 31P NMR)
  remaining at 24 h: 100%
[4]; pH 6.2, D2O
  Z isomer formed from E-3 (% int, 31P NMR): 8.9%
[4]; pH 6.2, D2O, read-out: E isomer (% int, 31P NMR)
  remaining at 24 h: 91.1%
[4]; pH 8.1, D2O
  Z isomer formed from E-3 (% int, 31P NMR): 8.7%
[4]; pH 8.1, D2O, read-out: E isomer (% int, 31P NMR)
  remaining at 24 h: 91.3%
[4]; pH 10.4, D2O
  F, fragmentation product (HO)2P(O)OH from E-3 (% int): 1.2%
  H, hydrolysis product 4 from E-3 (% int): 6.9%
  Z isomer formed from E-3 (% int, 31P NMR): 3.0%
[4]; pH 10.4, D2O, read-out: E isomer (% int, 31P NMR)
  remaining at 24 h: 87.2%
[4]; pH 11.0, D2O
  F, fragmentation product (HO)2P(O)OH from E-3 (% int): 3.6%
  H, hydrolysis product 4 from E-3 (% int): 18.4%
  Z isomer formed from E-3 (% int, 31P NMR): 1.8%
[4]; pH 11.0, D2O, read-out: E isomer (% int, 31P NMR)
  remaining at 24 h: 76.2%

## O=C(O)/C(=N\O)P(=O)(O)O [E-4]
[5]
  fragmentation product: exclusively orthophosphoric acid
  stability at high pH: quite stable
physchem; d2o, pH 5.7
  half-life: < 10 min
physchem; water, pH 6
  half-life: < 10 min

## COP(=O)(O)/C(=N/O)C(=O)O [E-13, Bis-DCHA^+ Salt (E-13) of (E)-(Hydroxyimino)-(hydroxymethoxyphosphinyl)acetic Acid]
[6]; 1:1 EtOH-t-BuOH
  ethyl and t-butyl methyl phosphate, total: 24%
[6]; heated in acetonitrile or EtOH
  phosphorylation products: 16-19%

## O=C(OCc1ccccc1[N+](=O)[O-])/C(=N\O)P(=O)(O)O [ONBCE-TA]
[7]; UV, 17 hr, 39° C., 100 mM Tris pH 6.9
  phosphoric acid formed (yield): 11%
[7]; absence of UV irradiation
  phosphorylation without irradiation: not noticed

## COC(=O)/C(=N/O)P(=O)(O)O [Z-3, Bis(dicyclohexylammonium) Z-Methyl (Hydroxyimino)phosphonoacetate]
[3]; room temperature
  time to complete hydrolysis: ≤ 0.042 days
[3]
  time of alkaline hydrolysis: 1 h
[1]; 4 h in 1:1 EtOH:i-PrOH, 79° C.
  stability on heating: stable
[1]; [12]
  E-isomer (yield, %): 4.7% and 5%
  phosphate (yield, %): 27.8% and 28%
  phosphononitrile (yield, %): 13.4% and 13%
  s.m. (%): 54.1%
[1]; H2O, 5.7 h, 82-84° C.
  conversion: 46%
[4]
  stability in D2O: stable
[4]; t = 0, pH 2.0, D2O
  Z isomer (% int, 31P NMR): 100%
[4]; t = 0, pH 4.2, D2O
  Z isomer (% int, 31P NMR): 100%
[4]; t = 0, pH 6.7, D2O
  Z isomer (% int, 31P NMR): 100%
[4]; t = 0, pH 8.3, D2O
  Z isomer (% int, 31P NMR): 100%
[4]; t = 0, pH 10.4, D2O
  Z isomer (% int, 31P NMR): 100%
[4]; t = 0, pH 11.0, D2O
  Z isomer (% int, 31P NMR): 100%
[4]; pH 2.0, D2O, read-out: Z isomer (% int, 31P NMR)
  remaining at 24 h: 100%
[4]; pH 4.2, D2O, read-out: Z isomer (% int, 31P NMR)
  remaining at 24 h: 100%
[4]; pH 6.7, D2O
  E isomer formed from Z-3 (% int, 31P NMR): 5.0%
[4]; pH 6.7, D2O, read-out: Z isomer (% int, 31P NMR)
  remaining at 24 h: 95%
[4]; pH 8.3, D2O
  E isomer formed from Z-3 (% int, 31P NMR): 7.4%
[4]; pH 8.3, D2O, read-out: Z isomer (% int, 31P NMR)
  remaining at 24 h: 92.6%
[4]; pH 10.4, D2O
  E isomer formed from Z-3 (% int, 31P NMR): 8.5%
  F, fragmentation product (HO)2P(O)CN from Z-3 (% int): 1.7%
  H, hydrolysis product 4 from Z-3 (% int): 2.6%
[4]; pH 10.4, D2O, read-out: Z isomer (% int, 31P NMR)
  remaining at 24 h: 87.2%
[4]; pH 11.0, D2O
  F, fragmentation product (HO)2P(O)CN from Z-3 (% int): 9.2%
  H, hydrolysis product 4 from Z-3 (% int): 14.5%
[4]; pH 11.0, D2O, read-out: Z isomer (% int, 31P NMR)
  remaining at 24 h: 76.3%

## O=C(O)/C(=N/O)P(=O)(O)O [Z-4]
[5]
  fragmentation product: cyanophosphonic acid
  stability at high pH: quite stable
physchem; d2o, pH 6
  half-life: ~5 min

## O=C(CP(=O)(O)O)Oc1ccc([N+](=O)[O-])cc1 [p-nitrophenyl phosphonoacetate]
[8]
  hydrolysis vs. p-nitrophenyl acetate (times slower): 250 ×
